target: recombinant CD73 (Homo sapiens (Human), UniProt P21589); assay: Assay 2: Inhibition of the CD73 enzyme in vitro (0.05 nM CD73, 1 hour 37° C., Malachite Green); format: biochemical; settings: 0.05 nM CD73, 50 μM AMP, 1 hour at 37° C.
Summary of the method: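 Soluble recombinant CD73 reactions ran 1 hour at 37° C. Malachite Green was then added, and absorbance at 630 nm was read after 5 min at room temperature. Inorganic phosphate was quantified from a phosphate standard curve.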

Chain of recombinant CD73 (P21589 27-547): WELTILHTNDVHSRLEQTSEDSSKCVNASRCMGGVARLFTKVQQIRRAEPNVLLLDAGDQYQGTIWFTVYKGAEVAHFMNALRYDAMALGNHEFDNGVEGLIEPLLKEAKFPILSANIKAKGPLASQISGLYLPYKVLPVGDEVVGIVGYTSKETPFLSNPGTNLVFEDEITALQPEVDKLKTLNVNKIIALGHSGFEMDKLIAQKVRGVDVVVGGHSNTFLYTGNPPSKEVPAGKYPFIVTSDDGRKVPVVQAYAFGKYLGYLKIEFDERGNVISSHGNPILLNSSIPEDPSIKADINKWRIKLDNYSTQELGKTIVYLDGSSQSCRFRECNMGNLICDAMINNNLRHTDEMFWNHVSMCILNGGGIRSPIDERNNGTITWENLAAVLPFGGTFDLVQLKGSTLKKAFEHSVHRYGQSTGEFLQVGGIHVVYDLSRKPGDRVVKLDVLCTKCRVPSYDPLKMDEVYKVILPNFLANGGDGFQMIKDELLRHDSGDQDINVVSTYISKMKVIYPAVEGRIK

First: C#C[C@@]1(O)[C@@H](COC(Cc2ccc(N3CCCNC3=O)cc2)(C(=O)O)C(=O)O)O[C@@H](n2cc(C)c(=O)[nH]c2=O)[C@@H]1O [Example 133, 2-(((2R,3S,4R,5R)-3-ethynyl-3,4-dihydroxy-5-(5-methyl-2,4-dioxo-3,4-dihydropyrimidin-1 (2H)-yl)tetrahydrofuran-2-yl)methoxy)-2-(4-(2-oxotetrahydropyrimidin-1 (2H)-yl)benzyl)malonic acid]
Second: C#C[C@@]1(O)[C@@H](CO[C@@](Cc2ccc(N3CCCNC3=O)cc2)(C(=O)O)C(=O)OCC)O[C@@H](n2cnc3c(N)nc(Cl)nc32)[C@@H]1O (single isomer, unassigned) [Example 165]
The IC50 of the first is 6.4-fold lower: 7 nM for the first, 45 nM for the second.

Compared with C#C[C@@]1(O)[C@@H](COC(Cc2cc(C)on2)(C(=O)O)C(=O)O)O[C@@H](n2cnc3c(NC(C)C)nc(Cl)nc32)[C@@H]1O [Example 110, 2-(((2R,3S,4R,5R)-5-(2-chloro-6-(isopropylamino)-9H-purin-9-yl)-3-ethynyl-3,4-dihydroxytetrahydrofuran-2-yl)methoxy)-2-((5-methylisoxazol-3-yl)methyl)malonic acid], C#C[C@@]1(O)[C@@H](COC(Cc2ccn[nH]2)(C(=O)O)C(=O)O)O[C@@H](n2cnc3c(N)nc(Cl)nc32)[C@@H]1O [Example 158, 2-((1H-pyrazol-5-yl)methyl)-2-(((2R,3S,4R,5R)-5-(6-amino-2-chloro-9H-purin-9-yl)-3-ethynyl-3,4-dihydroxytetrahydrofuran-2-yl)methoxy)malonic acid] is 2.7-fold higher in IC50: 3 nM for the first, 8 nM for the second. The first is the more potent here.

Going from C#C[C@@]1(O)[C@@H](COC(Cc2ccccc2)(C(=O)O)C(=O)O)O[C@@H](n2cnc3c(N[C@H](C)c4ccccc4)nc(Cl)nc32)[C@@H]1O [Example 62, 2-benzyl-2-(((2R,3S,4R,5R)-5-(2-chloro-6-(((R)-1-phenylethyl)amino)-9H-purin-9-yl)-3-ethynyl-3,4-dihydroxytetrahydrofuran-2-yl)methoxy)malonic acid] to C#C[C@@]1(O)[C@@H](COC(Cc2ccccc2)(C(=O)O)C(=O)O)O[C@@H](n2cnc3c(N)nc(C(C)O)nc32)[C@@H]1O (stereo partly drawn) [Example 161, 2-(((2R,3S,4R,5R)-5-(6-amino-2-(1-hydroxyethyl)-9H-purin-9-yl)-3-ethynyl-3,4-dihydroxytetrahydrofuran-2-yl)methoxy)-2-benzylmalonic acid], the IC50 rises from 2 nM to 561 nM (280-fold). The first is the more potent here.

Going from C#C[C@@]1(O)[C@@H](COC(Cc2ccncc2)(C(=O)O)C(=O)O)O[C@@H](n2cnc3c(N)nc(Cl)nc32)[C@@H]1O [Compound 7, 2-(((2R,3S,4R,5R)-5-(6-amino-2-chloro-9H-purin-9-yl)-3-ethynyl-3,4-dihydroxytetrahydrofuran-2-yl)methoxy)-2-(pyridin-4-ylmethyl)malonic acid] to C#C[C@@]1(O)[C@@H](COC(Cc2ccc(-c3cccn(C)c3=O)cc2)(C(=O)O)C(=O)O)O[C@@H](n2cnc3c(N)nc(Cl)nc32)[C@@H]1O [Example 162, 2-(((2R,3S,4R,5R)-5-(6-amino-2-chloro-9H-purin-9-yl)-3-ethynyl-3,4-dihydroxytetrahydrofuran-2-yl)methoxy)-2-(4-(1-methyl-2-oxo-1,2-dihydropyridin-3-yl)benzyl)malonic acid], the IC50 falls from 8 nM to 0.42 nM (19-fold).

First: C#C[C@@H]1[C@@H](O)[C@H](n2cnc3c(N)nc(Cl)nc32)O[C@@H]1COC(Cc1ccccc1)(C(=O)O)C(=O)O [Compound 2, 2-(((2S,3R,4R,5R)-5-(6-amino-2-chloro-9H-purin-9-yl)-3-ethynyl-4-hydroxytetrahydrofuran-2-yl)methoxy)-2-benzylmalonic acid]
Second: C#C[C@@]1(O)[C@@H](COC(Cc2ccc(N3CCCN(CCO)C3=O)cc2)(C(=O)O)C(=O)O)O[C@@H](n2cnc3c(NC)nc(Cl)nc32)[C@@H]1O [Example 137, 2-(((2R,3S,4R,5R)-5-(2-chloro-6-(methylamino)-9H-purin-9-yl)-3-ethynyl-3,4-dihydroxytetrahydrofuran-2-yl)methoxy)-2-(4-(3-(2-hydroxyethyl)-2-oxotetrahydropyrimidin-1 (2H)-yl)benzyl)malonic acid]
The IC50 of the first is 470-fold higher: 147 nM for the first, 0.31 nM for the second. The second is the more potent here.

Reference: US11078228B2, “Ectonucleotidase inhibitors and methods of use thereof” (Calithera Biosciences, Inc., priority 2018, dated 2021)
